Measurements as given in patent US4960790A, “Derivatives of taxol, pharmaceutical compositions thereof and methods for the preparation thereof” (University of Kansas, priority 1989, dated 1990).
Where a name gives a salt, the structure may show the parent alone. Read-outs that look alike come from different tables or passages of the source.

How the values were obtained:
Solubility = format: physicochemical; settings: read-out: Solubility
[1] = Chemical stability in buffer or water; format: physicochemical
Experimental: The compound was subjected to stability studies according to the following procedures.
(§1) Stabilities of derivatives at various pHs were studied at 25° and 37°. The plasma studies were conducted at 37° in rat and human plasma. Human plasma was obtained from Watkins Hospital and rat plasma was obtained from the Animal Care Unit of the University of Kansas. The derivative concentration used was around 20-25 μg/ml. A stock solution of the compound was prepared at 0.8-1.0 mg/mL and was added to plasma to give the desired concentration (20-25 μg/mL). One hundred microliter samples were removed and was quenched with 250 uL. acetonitrile and centrifuged to precipitate the plasma proteins. The degradation kinetics were studied by HPLC plotting peak area vs. time. The t90 and t50 were calculated. Both chemical and plasma studies were followed by high performance liquid chromatography using a RP-8 column (15 cm) and a precolumn (5 cm). The detector was set at 227 nm. The mobile phase consisted of 0.02M acetate (pH 5): acetonitrile 50:50 or 35:65 and the flow rate ranged from 1-1.5 mL/min or the same solvents containing 0.001M tetrabutylammoniumydrogensulphate and a flow rate of 1 mL/min.
The identity of this peak was further confirmed by the degradation studies of the new derivatives. Thus, 2'(DMG) taxol was incubated with water at 37° and the product was concentrated and purified by preparative TLC. The product after purification was analyzed by HPLC and spectroscopic methods.

[2] = Plasma stability, rat plasma; format: in vitro ADME; settings: rat plasma (20 μg/mL), 37° C.
Experimental: as §1

[3] = Plasma stability, human plasma; format: in vitro ADME; settings: 37° C.
Experimental: as §1, with “The derivative concentration used was around 20-25 μg/ml. A stock solution of the compound was prepared at 0.8-1.0 mg/mL and was added to plasma to give the desired concentration (20-25 μg/mL).” left out

microtubule assembly = experiment: In vitro microtubule assembly kinetics; format: biochemical; settings: rank order
Experimental: (A) In vitro Microtubule Assembly Kinetics Studies
The microtubule assembly study was conducted using both 2' and 7-derivatives according to the in vitro procedures disclosed, for example, in Mellado et al., Biochemical and Biophysical Research Communications, Vol. 124, No. 2 (1984), pp. 329-336; Magri et al., J. Org. Chem., 51, 797-802 (1986); and Parness et al., Biochemical and Biophysical Research Communications, Vol. 105, No. 3, pp. 1082-1091 (1982).

B-16 melanoma cells = experiment: In vitro B16 melanoma cell proliferation; format: cell-based; settings: rank order
Experimental: These studies were conducted according to standard procedures as described in Donoso and Himes, Cancer Biochem. Biophysics, vol. 7, (1984), p. 133.

[4] = test system: human mammary carcinoma MX-1 xenograft; experiment: Subrenal capsule human mammary carcinoma MX-1 xenograft in mice; settings: for % T/C: Q4D Days 1, 5, 9; for % T/C / # OF ANMLS ALIVE CALC/TOTAL / Average tumor WEIGHT CHANGE (DELTA) / Average tumor weight, FINAL: Day 11; for ANML BODY WT DIFF (test minus control) / TEST BODY WT CHG / # OF ANMLS ALIVE CALC/TOTAL / Average tumor WEIGHT CHANGE (DELTA) / Average tumor weight, FINAL: Q4D; for ANML BODY WT DIFF (test minus control) / TEST BODY WT CHG: Day 1 to 11
Description: The procedures followed are those described at pages 23-24 of NIH Publication No. 84-2635, In Vivo Cancer Model (February 1984).
In the procedure, test groups of mice (6 mice per test group) and control groups of 12 mice per group are utilized. A tumor fragment (human mammary carcinoma MX-1 xenograft), is implanted under the membranous covering of the kidney of each mouse.
Day 0: Anesthetize animals. Record body weight (Weigh Day 1). Implant tumor, measure and record. Randomize animals after they recover from the anesthetic. Run bacterial cultures. Determine solubilities of test agent. Record deaths daily.
Day 1: Check cultures. Discard experiment if contaminated. Prepare test materials. Initiate test agent injections (in the nape of the neck) based on individual body weight. Treatment is Q4D on Days 1, 5, and 9. Prepare test agent fresh on each injection day and administer based on individual body weight for that day.
Days 5 and 9: Prepare test agent fresh on each injection day and administer based on individual body weight for that day.
Day 11: End and evaluate experiment. Record body weights (Weigh Day 2). Measure tumor in OMU's (Ocular Micrometer Unit--10 OMU's=1 mm) and record.
The parameter measured is mean tumor weight change (delta) based on length and width measurements in millimeters. Mean animal body weights are computed for Day 1 and Day 11, compute T/C for all test groups with>65% survivors on Day 11. An excessive body weight change difference (test minus control) may also be used in evaluating toxicity. The dimensions are measured and recorded in Ocular Micrometer Units (OMU). A computer is utilized for the following:
(1) Converts OMU's to millimeters (mm).
(2) Calculates tumor weights (mgs) from tumor dimensions (mm×mm) following the formula for the volume of a prolate ellipsoid: [formula] (3) Calculates the change (delta) in mean tumor weight for each group of mice:
Change in Mean Tumor Weight=Mean Tumor WeightFINAL -Mean Tumor WeightINITIAL.
(4) Calculates the change (delta) in mean tumor weight for test (T) and control (C) groups.
(5) Calculates T/C% for all test groups with>65% survivors on Final Evaluation Day: [formula]

[5] = Plasma stability, dog plasma; format: in vitro ADME; settings: dog plasma (20 μg/mL), 37° C.

CC(=O)O[C@H]1C(=O)[C@]2(C)[C@@H](OC(=O)CN(C)C)C[C@H]3OC[C@@]3(OC(C)=O)[C@H]2[C@H](OC(=O)c2ccccc2)[C@]2(O)C[C@H](OC(=O)[C@H](O)[C@@H](NC(=O)c3ccccc3)c3ccccc3)C(C)=C1C2(C)C [Compound 8, Methanesulphonic acid salt of 7-(dimethylglycyl)taxol]
solubility (Solubility): > 2000 µg/mL | half-life ([1]; 0.02 M Acetate, pH 3.5, 25° C.): 142 days | half-life ([1]; 0.02 M Phosphate, pH 7.4, 25° C.): 1.41 days | half-life ([1]; 0.02 M acetate, pH 4.5, 25° C.): 71.6 days | half-life [2]: 1040 min | half-life ([3]; human plasma (10 μg/mL)): 1460 min | half-life ([3]; human plasma (20 μg/mL)): 1660 min

CC(=O)O[C@H]1C(=O)[C@@]2(C)[C@H]([C@H](OC(=O)c3ccccc3)[C@]3(O)C[C@H](OC(=O)[C@H](OC(=O)CN(C)C)[C@@H](NC(=O)c4ccccc4)c4ccccc4)C(C)=C1C3(C)C)[C@]1(OC(C)=O)CO[C@@H]1C[C@@H]2O [Compound 1, 2'-(N,N-dimethylglycyl)taxol]
Identity of degradation product ([1]; incubated with water at 37°): the product is taxol | Ability to assemble microtubules (order) (microtubule assembly): taxol >7-(N,N-dimethylglycyl)taxol(11)>2'(N,N-diethylaminopropionyl)taxol(8)>2'(N,N-dimethylglycyl)taxol(2) | Order of effectiveness in B-16 melanoma cell proliferation study (B-16 melanoma cells): taxol>2'-(N,N-dimethylglycyl)taxol>2'-(N,N-diethylaminopropionyl)taxol>7-(N,N-dimethylglycyl)taxol | % T/C ([4]; Table 1, 5.90 mg/kg): -78% | ANML BODY WT DIFF (test minus control) ([4]; Table 1, 5.90 mg/kg): -.5 | TEST BODY WT CHG ([4]; Table 1, 5.90 mg/kg): -2.2 | # OF ANMLS ALIVE CALC/TOTAL ([4]; Table 1, 5.90 mg/kg): 6/6 | Average tumor WEIGHT CHANGE (DELTA) ([4]; Table 1, 5.90 mg/kg): -.48 MGS | Average tumor weight, FINAL ([4]; Table 1, 5.90 mg/kg): .13 MGS | % T/C ([4]; Table 1, 8.90 mg/kg): -53% | ANML BODY WT DIFF (test minus control) ([4]; Table 1, 8.90 mg/kg): .8 | TEST BODY WT CHG ([4]; Table 1, 8.90 mg/kg): -.9 | # OF ANMLS ALIVE CALC/TOTAL ([4]; Table 1, 8.90 mg/kg): 5/6 | Average tumor WEIGHT CHANGE (DELTA) ([4]; Table 1, 8.90 mg/kg): -.41 MGS | Average tumor weight, FINAL ([4]; Table 1, 8.90 mg/kg): .36 MGS | ANML BODY WT DIFF (test minus control) ([4]; Table 1, 13.30 mg/kg): -.6 | TEST BODY WT CHG ([4]; Table 1, 13.30 mg/kg): -2.3 | # OF ANMLS ALIVE CALC/TOTAL ([4]; Table 1, 13.30 mg/kg): 4/6 | Average tumor WEIGHT CHANGE (DELTA) ([4]; Table 1, 13.30 mg/kg): -.64 MGS | Average tumor weight, FINAL ([4]; Table 1, 13.30 mg/kg): .00 MGS | ANML BODY WT DIFF (test minus control) ([4]; Table 1, 20.00 mg/kg): -.5 | TEST BODY WT CHG ([4]; Table 1, 20.00 mg/kg): -2.2 | # OF ANMLS ALIVE CALC/TOTAL ([4]; Table 1, 20.00 mg/kg): 4/6 | Average tumor WEIGHT CHANGE (DELTA) ([4]; Table 1, 20.00 mg/kg): -.56 MGS | Average tumor weight, FINAL ([4]; Table 1, 20.00 mg/kg): .00 MGS | % T/C ([4]; Table 1, 30.00 mg/kg): TOX | TEST BODY WT CHG ([4]; Table 1, 30.00 mg/kg): -3.8 | # OF ANMLS ALIVE CALC/TOTAL ([4]; Table 1, 30.00 mg/kg): 1/6 | Average tumor weight, FINAL ([4]; Table 1, 30.00 mg/kg): .00 MGS

CC(=O)O[C@H]1C(=O)[C@@]2(C)[C@H]([C@H](OC(=O)c3ccccc3)[C@]3(O)C[C@H](OC(=O)[C@H](OC(=O)CN(C)C)[C@@H](NC(=O)c4ccccc4)c4ccccc4)C(C)=C1C3(C)C)[C@]1(OC(C)=O)CO[C@@H]1C[C@@H]2O [Compound 2, Methanesulphonic acid salt of 2'-(N,N-dimethylglycyl)taxol]
solubility (Solubility; Clear): 2000 µg/mL | solubility (Solubility; Slightly Hazy): 15000 µg/mL | half-life ([1]; 0.02 M Acetate (0.1 mg/mL), pH 3.5, 25° C.): 4.01 days | half-life ([1]; 0.02 M Acetate (0.1 mg/mL), pH 4.5, 25° C.): 2.31 days | half-life ([1]; water (2 mg/mL), pH 3.8, 37° C.): 3.74 days | half-life [2]: 3.05 min | half-life [5]: 122 min | half-life ([3]; human plasma (20 μg/mL)): 199 min
